In patent US10151529B2, “Dynamic suspension drying (DSD) to control Ostwald Ripening” (HOVIONE INTERNATIONAL LTD, priority 2013, dated 2018):

Tests used:
Format in all cases: physicochemical
[1] = XRPD analysis of crystalline form after DSD
Excerpt: 8. The crystalline form was kept unchanged, as confirmed by XRPD analysis. 9. Through this delicate balance, stabilization of the suspension is accomplished (FIG. 3) in a simpler, effective, reproducible and easily scalable way; additionally, no impact on the polymorphic form was noticeable by XPRD analysis.

[2] = Laboratory study of Ostwald Ripening: particle size growth of size-reduced suspensions stored at different temperatures, LSW model fit
Procedure: 4. In order to confirm that the observed PS instability was being caused by OR phenomenon, a laboratorial study was designed. In this study, two suspensions of MFM were size-reduced via HPH to a different PS (D50=2.0 μm and 3.0 μm) and, afterwards, stored at different temperatures (5° C. and 45° C.). In all cases, PS growth was monitored by considering […] sampling time points (24, 72, 144 and 168 h).
Before fitting the obtained data, a literature review was conducted; several models can be found for OR modeling, with most of them being modifications of the Lifshitz, Slyozov and Wagner (LSW) theory (Eq. 1), which is a kinetic model that translates an isothermal variation of the more general problem (M. Mrotzek, 2008): […]
Based on the above equation, two important observations (M. Mrotzek, 2008) (V. Sadtler, 2002) are expected when in the presence of OR: i) a cubic or quadratic growth (depending on the limiting step) and ii) a more pronounced increase of K for higher temperatures. As shown in FIG. 2 (left plot), both previous observations are valid for the current case-study, thus supporting the presence of OR; in this plot, r^3-r0^3 was represented as a function of time and the K value determined by performing a linear regression where Eq. 1 was assumed as the theoretical model; as shown in […] (right plot) a good correlation coefficient was obtained (R^2=0.94).

[3] = Particle size (in-process control) after high pressure homogenization and during spray drying, with and without DSD
Procedure: 1. Mometasone furoate monohydrate (2330 g) was suspended in water (23000 g) and stirred for 5 hours in order to obtain a uniform suspension; afterwards, it was fed to a lab scale HPH apparatus operating at pressures ranging from 757.5 to 1363.5 bar in recirculation mode (returning the discharge of the HPH to the stirred vessel inlet), having this step ended with a Dv50˜2 μm after 63 hours of operation;
2. After the homogenization step described in point 1. above, particle size of the active pharmaceutical ingredient was within target and the suspension was fed to a lab scale spray dryer in order to isolate the active pharmaceutical ingredient in the form of a powder;
3. […] Due to this unstable behavior (the final material properties were trending out of targets) the batch had to be interrupted to accommodate an investigation.
6. In order to move forward with the manufacturing of the mentioned batch and following ones, the dynamic suspension drying (DSD) was applied targeting the stabilization of the suspension during drying for that purpose the suspension was recycled at a moderated pressure of 455 bar.

## C[C@@H]1C[C@H]2[C@@H]3CCC4=CC(=O)C=C[C@]4(C)[C@@]3(Cl)[C@@H](O)C[C@]2(C)[C@@]1(OC(=O)c1ccco1)C(=O)CCl [Mometasone furoate monohydrate]
[1]
  crystalline form after DSD: unchanged
[2]; D50 ~2 μm, 5° C., water as anti-solvent
  Ostwald Ripening at 5° C. for target D50 range: still significant
[2]; suspensions size-reduced to D50 = 2.0 μm and 3.0 μm, stored at 5° C. and 45° C., up to 168 h
  Ostwald Ripening rate constant K at 5° C. compared to 45° C.: more than five times lower
[3]; suspension in water, HPH at 757.5 to 1363.5 bar in recirculation mode, after 63 hours of operation
  Dv50 at end of HPH step: ~2 μm
[3]; suspension kept under stirring in feed vessel, no DSD, FIG. 2
  particle size trend during isolating step (spray drying) without recirculation: increasing values of particle size were observed over time
[3]; suspension recycled to HPH at 455 bar during drying, on average, FIG. 4
  Dv50 of isolated product manufactured through DSD: ~2 μm
